Test results published in ChEMBL document CHEMBL1201862, “PubChem BioAssay data set” (2004).
Activity calls are given as the source filed them.

How the values were obtained:
[1] = target: T1, COUP transcription factor 2 (Homo sapiens, UniProt P24468); assay: Luminescence-based cell-based high throughput dose response assay to identify inhibitors of COUP-TFII (NR2F2).; type: functional;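 also: HEK293 cells transiently cotransfected with COUP-TFII expression vector and reporter; luciferase reporter luminescence driven by COUP-TFII from the pX2-168 reporter plasmid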
T1 sequence (P24468 whole entry): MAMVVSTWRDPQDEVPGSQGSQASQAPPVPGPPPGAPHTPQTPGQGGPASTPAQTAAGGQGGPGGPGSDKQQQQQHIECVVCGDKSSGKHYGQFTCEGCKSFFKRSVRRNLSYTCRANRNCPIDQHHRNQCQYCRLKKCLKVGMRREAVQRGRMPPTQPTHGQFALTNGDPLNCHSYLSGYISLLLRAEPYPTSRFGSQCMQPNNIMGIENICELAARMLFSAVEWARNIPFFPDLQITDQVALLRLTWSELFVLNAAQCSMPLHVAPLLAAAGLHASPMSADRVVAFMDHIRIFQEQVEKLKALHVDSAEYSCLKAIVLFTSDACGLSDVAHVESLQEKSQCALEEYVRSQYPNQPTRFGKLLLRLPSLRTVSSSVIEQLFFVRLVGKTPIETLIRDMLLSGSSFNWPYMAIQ

Jurkat = assay: blockers of NF-kB activation in T cells – Jurkat, luciferase reporter, luminescence, B- and T-cell, dose response (AID 489004); type: functional, cell-based; details: Homo sapiens;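 also: NF-kB luciferase reporter Jurkat cells stimulated with PMA plus ionomycin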
INS1 = assay: INS-1E survival protection against cytokine death – cell-based, luminescence, retest, dose response (AID 449756); type: functional; details: Rattus norvegicus;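 also: cell death triggered by IL-1 beta plus TNF-alpha plus IFN-gamma mixture; protective hits raise ATP signal compared with cytokine alone wells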
Galanin receptor type 3 = Galanin receptor type 3 (Homo sapiens, UniProt O60755); assay: Fluorescence-based cell-based primary high throughput dose response assay to identify antagonists of the Galanin Receptor 3 (GalR3).; type: functional
Sequence of Galanin receptor type 3 (O60755 whole entry): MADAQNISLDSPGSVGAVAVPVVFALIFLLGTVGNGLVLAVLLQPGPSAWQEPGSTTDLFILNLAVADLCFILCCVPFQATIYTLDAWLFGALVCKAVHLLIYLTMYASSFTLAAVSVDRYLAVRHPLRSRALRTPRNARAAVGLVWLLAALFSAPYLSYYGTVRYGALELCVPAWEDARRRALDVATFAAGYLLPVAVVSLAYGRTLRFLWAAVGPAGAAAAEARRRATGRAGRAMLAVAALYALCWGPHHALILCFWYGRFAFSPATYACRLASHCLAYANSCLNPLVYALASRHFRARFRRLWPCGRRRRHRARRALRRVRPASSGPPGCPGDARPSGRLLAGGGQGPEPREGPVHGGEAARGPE

[2] = loss of viability in HepG2 cells – cell-based, CellTiter-Glo, cherry-picked, cytotoxicity control for Shn3 inhibitor project, dose response (AID 624134); type: functional
[3] = HEK-293T viability loss, compound-treated – cell-based, uHTS hits, cytotoxicity control for B/T-cell NF-kB inhibitor project, dose response (AID 489019); type: functional;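 also: IC50 reflects cytotoxicity as loss of cell viability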
[4] = non-specific 3'UTR reporter inhibition in Clone20-Shn3RL – cell-based, Renilla luciferase, cherry-picked, counter-screen for Shn3 inhibitor project, dose response (AID 624133); type: functional
cells = type: functional, cell-based; details: HEK-CNG
[5] = reduction of Shn3 3'UTR-driven luciferase in osteoblasts – cell-based, Clone20 osteoblasts, firefly luciferase, cherry-picked, dose response (AID 624132); type: functional;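 also: firefly luciferase luminescence from reporter carrying the Shn3 3'UTR in osteoblasts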
Beta-lactamase [6] = target: T2, Beta-lactamase (Pseudomonas aeruginosa, UniProt Q79MP6)
T2 sequence (Q79MP6 whole entry): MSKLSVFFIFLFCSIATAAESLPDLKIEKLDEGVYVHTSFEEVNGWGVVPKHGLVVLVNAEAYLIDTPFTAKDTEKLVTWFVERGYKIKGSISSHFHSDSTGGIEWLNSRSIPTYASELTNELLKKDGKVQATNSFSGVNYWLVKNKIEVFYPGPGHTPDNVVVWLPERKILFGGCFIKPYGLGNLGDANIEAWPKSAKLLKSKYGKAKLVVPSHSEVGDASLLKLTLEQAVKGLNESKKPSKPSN

Beta-lactamase [7] = target: T3, Beta-lactamase (Salmonella choleraesuis (strain SC-B67), UniProt Q5J463)
T3 sequence (Q5J463 whole entry): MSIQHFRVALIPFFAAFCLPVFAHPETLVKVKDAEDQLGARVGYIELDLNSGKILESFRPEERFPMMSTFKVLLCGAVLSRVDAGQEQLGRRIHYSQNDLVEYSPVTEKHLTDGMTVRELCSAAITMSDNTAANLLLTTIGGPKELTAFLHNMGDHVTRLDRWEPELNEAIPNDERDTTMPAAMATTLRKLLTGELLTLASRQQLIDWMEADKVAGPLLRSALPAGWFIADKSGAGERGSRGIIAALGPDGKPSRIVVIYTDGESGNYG

[8] = target: Fructose-bisphosphate aldolase (Mycobacterium tuberculosis, UniProt P9WQA3); assay: Fluorescence-based biochemical high throughput dose response assay for inhibitors of the fructose-bisphosphate aldolase (FBA) of M. tuberculosis.; type: functional
Sequence of Fructose-bisphosphate aldolase (P9WQA3 whole entry): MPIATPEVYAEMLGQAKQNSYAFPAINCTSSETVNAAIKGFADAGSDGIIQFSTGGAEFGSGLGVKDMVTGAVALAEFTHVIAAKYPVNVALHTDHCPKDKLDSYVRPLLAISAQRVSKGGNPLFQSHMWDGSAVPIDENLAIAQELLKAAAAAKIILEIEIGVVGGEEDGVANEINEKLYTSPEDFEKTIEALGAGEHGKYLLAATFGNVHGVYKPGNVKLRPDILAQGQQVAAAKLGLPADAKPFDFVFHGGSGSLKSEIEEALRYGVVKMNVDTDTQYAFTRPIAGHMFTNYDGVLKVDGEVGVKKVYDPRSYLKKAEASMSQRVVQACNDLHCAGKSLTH

[9] = target: Dual specificity tyrosine-phosphorylation-regulated kinase 1A (Rattus norvegicus, UniProt Q63470); type: biochemical, Homo sapiens
Beta-lactamase [10] = target: T2, Beta-lactamase; assay: inhibition of IMP-1 beta-lactamase activity – biochemical, epi-absorbance, selectivity assay for VIM-2 inhibitor project, dose response (AID 1920)
Beta-lactamase [11] = target: T2, Beta-lactamase; assay: […] counterscreen for selective VIM-2 inhibitors: dose response biochemical high throughput screening assay to identify inhibitors of IMP-1 metallo-beta-lactamase.
Beta-lactamase [12] = target: T3, Beta-lactamase; assay: Epi-absorbance-based counterscreen for selective VIM-2 inhibitors: dose response biochemical high throughput screening assay to identify inhibitors of TEM-1 serine-beta-lactamase.
Paired box protein Pax-8 = Paired box protein Pax-8 (Homo sapiens, UniProt Q06710); assay: PAX8 transcriptional activity inhibition in RMG-I – RMG-I cells, luciferase, cherry-pick, dose response (AID 687027); type: functional, cell-based;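 also: luciferase reporter driven by Pax8 target thyroperoxidase promoter measured by SteadyGlo luminescence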
Sequence of Paired box protein Pax-8 (Q06710 whole entry): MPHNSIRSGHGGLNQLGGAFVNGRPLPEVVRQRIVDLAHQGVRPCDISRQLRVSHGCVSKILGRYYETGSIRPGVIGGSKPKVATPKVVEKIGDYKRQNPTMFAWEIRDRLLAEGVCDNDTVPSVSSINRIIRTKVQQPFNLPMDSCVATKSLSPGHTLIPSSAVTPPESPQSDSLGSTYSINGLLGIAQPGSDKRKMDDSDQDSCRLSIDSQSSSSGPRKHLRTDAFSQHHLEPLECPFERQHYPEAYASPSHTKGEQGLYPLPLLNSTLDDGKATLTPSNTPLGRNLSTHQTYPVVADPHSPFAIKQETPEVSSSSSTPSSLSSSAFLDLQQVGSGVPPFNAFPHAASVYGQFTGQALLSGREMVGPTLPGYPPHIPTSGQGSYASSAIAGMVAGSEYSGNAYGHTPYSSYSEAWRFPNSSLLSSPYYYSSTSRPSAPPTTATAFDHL

[13] = general cell-killing toxicity readout – plate reader, dry powder samples, cytotoxicity control for PAX8 inhibitor project, dose response (AID 743021); type: functional, cell-based
[14] = target: T4, DNA repair protein RAD52 homolog (Homo sapiens, UniProt P43351); type: functional, biochemical
T4 sequence (P43351 whole entry): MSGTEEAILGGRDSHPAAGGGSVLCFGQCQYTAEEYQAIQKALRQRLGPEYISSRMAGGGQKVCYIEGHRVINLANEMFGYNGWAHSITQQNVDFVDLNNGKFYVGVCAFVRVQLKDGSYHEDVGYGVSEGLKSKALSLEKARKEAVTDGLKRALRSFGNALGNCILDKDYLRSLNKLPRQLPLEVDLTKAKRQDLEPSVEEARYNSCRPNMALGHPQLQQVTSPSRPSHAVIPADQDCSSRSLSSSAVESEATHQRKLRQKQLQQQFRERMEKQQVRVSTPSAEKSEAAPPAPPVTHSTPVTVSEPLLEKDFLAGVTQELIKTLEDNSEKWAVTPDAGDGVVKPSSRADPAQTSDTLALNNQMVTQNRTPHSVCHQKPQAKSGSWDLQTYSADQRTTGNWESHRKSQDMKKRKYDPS

Beta Lactamase = Beta Lactamase (Pseudomonas aeruginosa, UniProt Q932Y6); assay: BLA reporter interference, concentration series – BLA reporter cells, FRET fluorescence, artefact control for NOD2-RIPK2 interaction inhibitor project, dose response (AID 651552); type: functional, cell-based
Sequence of Beta Lactamase (Q932Y6 whole entry, the tested form may be a part): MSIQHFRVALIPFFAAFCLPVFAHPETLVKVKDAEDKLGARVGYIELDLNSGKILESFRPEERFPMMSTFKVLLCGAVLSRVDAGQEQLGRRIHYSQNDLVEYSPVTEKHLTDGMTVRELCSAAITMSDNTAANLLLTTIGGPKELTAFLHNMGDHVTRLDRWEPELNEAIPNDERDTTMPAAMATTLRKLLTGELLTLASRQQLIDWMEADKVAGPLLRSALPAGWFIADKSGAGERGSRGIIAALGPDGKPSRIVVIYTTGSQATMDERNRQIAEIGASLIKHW

[15] = Fluorescence-based cell-based high throughput dose response assay for inhibitors of the interaction of nucleotide-binding oligomerization domain containing 2 (NOD2) and the receptor-interacting serine-threonine kinase 2 (RIPK2).; type: functional; details: Homo sapiens
Protein Wnt-3a = Protein Wnt-3a (Mus musculus, UniProt P27467); assay: SAR analysis of small molecule antagonists of Gli-SUFU in a Wnt3a luminescent reporter assay.; type: functional
Sequence of Protein Wnt-3a (P27467 whole entry): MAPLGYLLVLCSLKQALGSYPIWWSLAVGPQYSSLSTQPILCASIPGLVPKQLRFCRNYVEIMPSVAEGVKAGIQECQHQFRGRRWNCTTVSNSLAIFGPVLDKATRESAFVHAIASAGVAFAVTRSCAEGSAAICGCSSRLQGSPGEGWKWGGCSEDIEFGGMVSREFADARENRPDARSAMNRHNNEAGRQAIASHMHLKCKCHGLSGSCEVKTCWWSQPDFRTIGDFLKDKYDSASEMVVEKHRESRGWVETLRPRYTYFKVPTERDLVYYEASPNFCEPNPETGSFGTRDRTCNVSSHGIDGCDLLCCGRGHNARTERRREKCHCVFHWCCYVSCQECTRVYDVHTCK

[16] = Trypanosoma cruzi growth suppression in host cells – NIH3T3 host cells, beta-gal luminescence, confirmation (AID 2044); type: functional, cell-based;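 also: intracellular parasites grown in NIH/3T3 mouse fibroblasts as host cells; luminescent beta-galactosidase reporter signal from transgenic T. cruzi replicating inside host cells; inhibitors lower the luminescence signal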
Streptococcus = assay: GAS UMAA2166 growth inhibition – luminescence, BacTiterGlo, counter-screen for streptokinase expression inhibitor project, dose response (AID 1915); type: functional, organism-based;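 also: potency for reduction of bacterial viability or growth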
[17] = target: T5, Ubiquitin-conjugating enzyme E2 N (Homo sapiens, UniProt P61088); type: functional;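 also: Dose-response confirmation in a TR-FRET assay detecting UBC13-driven polyubiquitin chain formation, inhibition measured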
T5 sequence (P61088 whole entry): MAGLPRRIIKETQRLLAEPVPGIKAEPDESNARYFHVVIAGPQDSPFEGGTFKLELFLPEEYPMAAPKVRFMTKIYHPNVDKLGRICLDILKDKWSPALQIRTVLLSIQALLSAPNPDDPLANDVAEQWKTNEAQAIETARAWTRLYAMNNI

[18] = activation of miR-122 Renilla sensor silencing – cell-based, Huh7 psiCHECK-miR122, Renilla luciferase, cherry-picked, dose response (AID 651956); type: functional;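 also: huh7 hepatoma cells stably carrying a psiCHECK-2 miR-122 sensor plasmid; renilla luciferase signal reporting endogenous miR-122 activity after 48 h compound exposure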
[19] = NIH3T3 cell viability loss – ATP luminescence, mouse fibroblasts, counter-screen, dose response (AID 2010); type: functional, cell-based;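 also: cells exposed to compound for about 90 hours before reading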
[20] = test system: Streptococcus sp. 'group A'; assay: Streptococcus pyogenes SK(-)GAS viability under kanamycin – luminescence, BacTiterGlo, confirmation, counter-screen for streptokinase expression inhibitor project, dose response (AID 1900); type: functional, organism-based
Streptokinase A = target: T6, Streptokinase A (Streptococcus pyogenes serotype M1, UniProt P10520); assay: viability-normalized secreted streptokinase activity reduction – plasminogen activation absorbance, OD405, dose response (AID 1914); type: functional, Streptococcus pyogenes M1 GAS;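 also: secreted streptokinase activity via plasminogen activation per viability signal from cell pellet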
T6 sequence (P10520 whole entry): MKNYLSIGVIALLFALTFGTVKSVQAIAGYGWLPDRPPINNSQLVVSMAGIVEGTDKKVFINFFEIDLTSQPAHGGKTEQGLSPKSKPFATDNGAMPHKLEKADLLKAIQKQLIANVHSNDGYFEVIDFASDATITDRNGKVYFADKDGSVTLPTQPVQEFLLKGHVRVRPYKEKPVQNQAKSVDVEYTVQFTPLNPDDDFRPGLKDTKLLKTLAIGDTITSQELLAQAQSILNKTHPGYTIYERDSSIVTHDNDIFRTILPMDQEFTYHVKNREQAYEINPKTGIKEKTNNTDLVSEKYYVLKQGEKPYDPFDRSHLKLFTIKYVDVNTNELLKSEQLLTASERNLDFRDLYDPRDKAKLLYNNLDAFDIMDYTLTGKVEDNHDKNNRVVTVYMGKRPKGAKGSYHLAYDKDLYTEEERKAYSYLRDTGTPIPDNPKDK

[21] = target: FAD-linked sulfhydryl oxidase ALR (Homo sapiens, UniProt P55789); assay: ALR-catalysed DTT oxidation blockers – biochemical, H2O2 detection, luminescence, cherry-pick, dose response (AID 493248)
Sequence of FAD-linked sulfhydryl oxidase ALR (P55789 whole entry): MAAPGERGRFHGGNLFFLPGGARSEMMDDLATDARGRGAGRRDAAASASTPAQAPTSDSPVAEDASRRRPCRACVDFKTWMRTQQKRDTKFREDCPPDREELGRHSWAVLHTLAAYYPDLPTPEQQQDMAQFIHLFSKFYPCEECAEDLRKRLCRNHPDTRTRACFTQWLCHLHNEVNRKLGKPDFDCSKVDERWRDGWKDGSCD

[22] = target: T7, Probable nicotinate-nucleotide adenylyltransferase (Staphylococcus aureus (strain N315), UniProt P65502); type: functional, Staphylococcus aureus subsp. aureus N315;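 as to IC50 Mean: confirmatory dose-response retesting of NadD inhibitor hits first found in an ultra-high-throughput screen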
T7 sequence (P65502 whole entry): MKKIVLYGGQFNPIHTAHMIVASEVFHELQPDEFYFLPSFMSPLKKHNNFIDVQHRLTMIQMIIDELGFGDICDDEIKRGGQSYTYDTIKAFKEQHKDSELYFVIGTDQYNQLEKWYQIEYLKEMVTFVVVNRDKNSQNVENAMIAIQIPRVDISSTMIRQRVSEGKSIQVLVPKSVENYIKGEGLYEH

[23] = target: T7, Probable nicotinate-nucleotide adenylyltransferase; type: functional, Staphylococcus aureus subsp. aureus N315; details: read-out: IC50_Mean
Large T antigen = Large T antigen (Simian virus 40, UniProt P03070); type: functional, Betapolyomavirus macacae;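 also: Confirmatory-stage PubChem screen for compounds that inhibit SV40 T antigen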
Sequence of Large T antigen (P03070 whole entry): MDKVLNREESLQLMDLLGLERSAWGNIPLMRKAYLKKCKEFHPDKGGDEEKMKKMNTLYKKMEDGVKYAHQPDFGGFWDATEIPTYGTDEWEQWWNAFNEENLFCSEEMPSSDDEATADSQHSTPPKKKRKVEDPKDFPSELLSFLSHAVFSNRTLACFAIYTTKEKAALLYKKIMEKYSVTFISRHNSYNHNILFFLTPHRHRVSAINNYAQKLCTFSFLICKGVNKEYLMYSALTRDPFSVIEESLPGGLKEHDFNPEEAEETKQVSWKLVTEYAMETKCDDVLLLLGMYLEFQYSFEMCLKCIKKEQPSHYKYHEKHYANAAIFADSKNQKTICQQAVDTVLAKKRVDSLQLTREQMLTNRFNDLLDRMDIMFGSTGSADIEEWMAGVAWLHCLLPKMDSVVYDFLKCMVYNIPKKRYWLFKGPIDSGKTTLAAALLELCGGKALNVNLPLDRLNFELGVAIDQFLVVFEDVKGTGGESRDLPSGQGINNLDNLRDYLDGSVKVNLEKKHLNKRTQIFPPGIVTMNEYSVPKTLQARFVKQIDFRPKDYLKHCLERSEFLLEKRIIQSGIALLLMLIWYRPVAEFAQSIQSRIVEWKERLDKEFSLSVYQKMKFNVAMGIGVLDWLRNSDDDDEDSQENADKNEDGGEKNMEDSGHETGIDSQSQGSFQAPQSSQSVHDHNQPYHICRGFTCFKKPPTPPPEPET

[24] = T. cruzi growth inhibition in host cells, dose response, cell-based, plate reader, dry powder, set 2 (AID 652275); type: functional
[25] = nonselective StAR promoter luciferase inhibitors – cell-based, luminescence, luciferase reporter, counter-screen for LRH-1 inverse agonist project, dose response (AID 651969); type: functional
[26] = target: T8, Microphthalmia-associated transcription factor (Homo sapiens, UniProt O75030); assay: reducers of TRPM1 reporter luminescence, concentration series – cell-based, SK-MEL-5, cherry-picked, set 3, MITF inhibitor project, dose response (AID 493073); type: functional;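 also: SK-MEL-5 melanoma cells with luciferase driven by the MITF target TRPM1 promoter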
T8 sequence (O75030 whole entry): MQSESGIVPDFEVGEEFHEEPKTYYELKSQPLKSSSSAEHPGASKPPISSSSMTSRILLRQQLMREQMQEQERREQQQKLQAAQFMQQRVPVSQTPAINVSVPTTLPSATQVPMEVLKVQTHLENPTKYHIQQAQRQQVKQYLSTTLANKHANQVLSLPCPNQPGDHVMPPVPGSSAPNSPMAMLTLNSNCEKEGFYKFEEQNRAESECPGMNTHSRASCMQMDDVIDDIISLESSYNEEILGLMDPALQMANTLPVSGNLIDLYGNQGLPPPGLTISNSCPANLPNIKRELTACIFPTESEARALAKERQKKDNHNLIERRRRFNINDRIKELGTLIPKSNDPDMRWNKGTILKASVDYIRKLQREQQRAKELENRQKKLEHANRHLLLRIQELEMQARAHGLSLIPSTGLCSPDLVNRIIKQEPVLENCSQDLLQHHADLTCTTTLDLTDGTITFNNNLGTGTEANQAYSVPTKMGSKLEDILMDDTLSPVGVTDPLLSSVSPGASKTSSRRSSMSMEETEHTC

[27] = target: Nuclear receptor subfamily 5 group A member 2 (Homo sapiens, UniProt O00482); type: functional, cell-based;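 also: HEK293T cells transfected with LRH-1 and a StAR promoter luciferase reporter; potency for inhibitors that lower LRH-1 driven reporter light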
Sequence of Nuclear receptor subfamily 5 group A member 2 (O00482 whole entry): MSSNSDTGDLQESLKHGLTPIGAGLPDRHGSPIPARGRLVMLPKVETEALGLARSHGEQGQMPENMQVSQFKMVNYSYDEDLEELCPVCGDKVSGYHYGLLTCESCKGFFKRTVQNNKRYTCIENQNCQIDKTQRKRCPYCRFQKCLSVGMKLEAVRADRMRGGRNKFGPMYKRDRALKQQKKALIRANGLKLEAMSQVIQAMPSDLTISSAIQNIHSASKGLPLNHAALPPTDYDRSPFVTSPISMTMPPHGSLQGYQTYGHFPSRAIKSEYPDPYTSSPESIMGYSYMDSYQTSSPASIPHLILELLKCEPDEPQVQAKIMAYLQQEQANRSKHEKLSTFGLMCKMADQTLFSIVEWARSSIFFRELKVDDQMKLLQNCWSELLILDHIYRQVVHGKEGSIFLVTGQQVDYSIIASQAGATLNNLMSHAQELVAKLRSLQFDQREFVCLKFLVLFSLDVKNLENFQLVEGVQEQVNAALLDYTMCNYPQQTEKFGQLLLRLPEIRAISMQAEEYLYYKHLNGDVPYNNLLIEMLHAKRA

Steroidogenic factor 1 = Steroidogenic factor 1 (Homo sapiens, UniProt Q13285); assay: Counterscreen for inverse agonists of the liver receptor homolog-1 (LRH-1; NR5A2): Luminescence-based cell-based high throughput dose response assay to identify inverse agonists of the Steroidogenic Factor 1 Nuclear Receptor (SF1; NR5A1).; type: functional
Sequence of Steroidogenic factor 1 (Q13285 whole entry): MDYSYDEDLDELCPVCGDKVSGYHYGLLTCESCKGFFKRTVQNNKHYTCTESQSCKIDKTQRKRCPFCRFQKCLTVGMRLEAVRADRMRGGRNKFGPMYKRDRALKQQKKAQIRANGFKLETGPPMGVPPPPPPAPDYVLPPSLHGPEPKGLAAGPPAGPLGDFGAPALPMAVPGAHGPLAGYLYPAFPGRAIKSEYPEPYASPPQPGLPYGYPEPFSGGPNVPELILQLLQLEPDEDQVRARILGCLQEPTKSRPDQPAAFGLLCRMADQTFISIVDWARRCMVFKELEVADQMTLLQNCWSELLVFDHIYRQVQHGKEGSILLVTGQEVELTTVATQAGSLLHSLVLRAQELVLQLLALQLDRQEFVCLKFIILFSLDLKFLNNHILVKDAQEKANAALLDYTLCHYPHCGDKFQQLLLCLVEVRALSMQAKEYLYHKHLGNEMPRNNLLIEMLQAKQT

COc1ccc(CN(C)c2ccc(S(=O)(=O)N3CCN(C)CC3)cc2[N+](=O)[O-])cc1OC
IC50 [1]: 2.05 µM (active)
IC50 (Jurkat): > 80 µM (inactive)
AC50 (INS1): 1.45 µM (active)
IC50 (Galanin receptor type 3): 0.419 µM (active)
AC50 [2]: 0.824 µM (active)
IC50 [3]: > 80 µM (inactive)
AC50 [4]: 23.8 µM (active)
EC50 (cells): > 29.9 µM (inactive)
AC50 [5]: 0.691 µM (active)

CCC(NCCC(c1ccccc1)c1ccccc1)=C1C(=O)NC(=O)NC1=O
IC50 (Galanin receptor type 3): 5.36 µM (active)
EC50 (cells): > 29.9 µM (inactive)

CCCCC(Sc1nc(N)c(NC(=O)c2ccco2)c(=O)[nH]1)C(=O)O (stereo unspecified)
IC50 (Beta-lactamase [6]): > 59.6 µM (inactive)
IC50 (Beta-lactamase [7]): > 59.6 µM (inactive)

CC(=O)NCCNC(=O)C1Cc2c(-c3ccc4c(c3)OCO4)ccnc2O1 (stereo unspecified)
IC50 [8]: 1.73 µM (active)

CC1(C)C=Cc2cc3ccc(=O)oc3cc2O1 [XANTHYLETIN]
IC50 [8]: > 1.11 µM (active)
AC50 [9]: 8.65 µM (active)

Sc1nnc(C2CC2)n1Cc1ccco1
IC50 (Beta-lactamase [10]): > 59.6 µM (inactive)
IC50 (Beta-lactamase [11]): > 59.6 µM (inactive)
IC50 (Beta-lactamase [12]): > 59.6 µM (inactive)

CCSc1ccc(-c2cc(NC=O)c3ncc(-c4cccc(C(=O)NCCN(C)C)c4)n3c2)cc1
AC50 (Paired box protein Pax-8): 9.88 µM (active)
AC50 [13]: 53.9 µM (active)
AC50 [14]: 1.14 µM (active)
IC50 (Beta Lactamase): 20 µM (inactive)
IC50 [15]: 11.8 µM (inactive)

CC1CCCCN1c1cc(NC(=O)c2ccccc2)ncn1 (stereo unspecified)
IC50 (Protein Wnt-3a): > 21.8 µM (inactive)

CC(C)(C)c1cc(NCCCn2ccnc2)n2ncc(-c3ccc(Cl)cc3)c2n1
EC50 [16]: 1.49 µM (active)
EC50 (Streptococcus): 6.12 µM (active)
IC50 [17]: > 20 µM (inactive)
AC50 [18]: 1.45 µM (active)
EC50 [19]: 5.5 µM (active)
EC50 [20]: 1.91 µM (active)
EC50 (Streptokinase A): > 150 µM (not active)

O=C(O)c1c(C(=O)O)c(-c2ccc(Br)cc2)n2c1CSC2
IC50 (Beta-lactamase [10]): > 59.6 µM (inactive)
IC50 (Beta-lactamase [11]): 41.9 µM (inactive)
AC50 [21]: 5.35 µM (active)
IC50 (Beta-lactamase [12]): > 59.6 µM (inactive)

CCC(=O)Nc1ccc(C(=O)COC(=O)c2nc3nccc(C)n3n2)cc1
IC50 [22]: 1.92 µM (active)
IC50 [23]: 4.5 µM (active)

O=C(Nc1cc(N2CCCCC2)ncn1)c1cccc2ccccc12
IC50 (Protein Wnt-3a): > 21.8 µM (inactive)

O=C(Nc1cccc(N2C(=O)C=CC2=O)c1)c1cccs1
EC50 [16]: 2.12 µM (active)
EC50 [19]: 4.6 µM (active)
IC50 (Large T antigen): 70.5 µM (active)
IC50 (Beta Lactamase): 14.1 µM (inactive)
IC50 [15]: 2.27 µM (active)

C[C@H]1CN([C@@H](C)CO)C(=O)c2cccc(NC(=O)c3ccncc3)c2O[C@@H]1CN(C)Cc1ccc(F)c(F)c1
AC50 [24]: 0.0246 µM (active)

Cc1ccccc1OCC(=O)N/N=C/c1ccc([N+](=O)[O-])o1
EC50 [16]: 0.151 µM (active)
IC50 [25]: 29.9 µM (inactive)
AC50 [26]: 8.22 µM (active)
EC50 [19]: > 30 µM (not active)
IC50 [27]: 10.6 µM (inactive)
IC50 (Steroidogenic factor 1): 6.24 µM (active)
